Measurements taken from ChEMBL document CHEMBL5042514, “Picolylamine-functionalized benz[e]indole squaraine dyes: Synthetic approach, characterization and in vitro efficacy as potential anticancer phototherapeutic agents” (Eur J Med Chem, 2022).
Active and inactive are the calls of the source. No cut-off for these calls is given here.

Assays:
[1] = Dark toxicity against human NHDF cells assessed as reduction in cell viability incubated for 24 hrs by MTT assay; format: cell-based
[2] = Phototoxicity against human NHDF cells assessed as reduction in cell viability preincubated for 24 hrs followed by 7 mins of LED light irradiation by MTT assay; format: toxicity, cell-based
[3] = Phototoxicity ratio of IC50 for cytotoxicity against human NHDF cells assessed as reduction in cell viability in dark to IC50 for phototoxicity against human NHDF cells upon LED light irradiation; format: toxicity, cell-based; settings: read-out: Ratio IC50
[4] = Dark toxicity against human Caco-2 cells assessed as reduction in cell viability incubated for 24 hrs by MTT assay; format: cell-based
[5] = Phototoxicity against human Caco-2 cells assessed as reduction in cell viability preincubated for 24 hrs followed by 7 mins of LED light irradiation by MTT assay; format: toxicity, cell-based; settings: Caco-2, light or radiation study
[6] = Phototoxicity ratio of IC50 for cytotoxicity against human Caco-2 cells assessed as reduction in cell viability in dark to IC50 for phototoxicity against human Caco-2 cells upon LED light irradiation; format: toxicity, cell-based
[7] = Selectivity ratio of IC50 for phototoxicity against human NHDF cells upon LED light irradiation to IC50 for phototoxicity against human Caco-2 cells upon LED light irradiation; format: toxicity, cell-based; settings: NHDF cells versus Caco-2 cells, read-out: Ratio IC50
[8] = Dark toxicity against human HeLa cells assessed as reduction in cell viability incubated for 24 hrs by MTT assay; format: cell-based
[9] = Phototoxicity against human HeLa cells assessed as reduction in cell viability preincubated for 24 hrs followed by 7 mins of LED light irradiation by MTT assay; format: toxicity, cell-based; settings: light or radiation study
[10] = Phototoxicity ratio of IC50 for cytotoxicity against human HeLa cells assessed as reduction in cell viability in dark to IC50 for phototoxicity against human HeLa cells upon LED light irradiation; format: toxicity, cell-based
[11] = Selectivity ratio of IC50 for phototoxicity against human NHDF cells upon LED light irradiation to IC50 for phototoxicity against human HeLa cells upon LED light irradiation; format: toxicity, cell-based; settings: NHDF cells versus HeLa cells, read-out: Ratio IC50
[12] = Dark toxicity against human MCF7 cells assessed as reduction in cell viability incubated for 24 hrs by MTT assay; format: cell-based
[13] = Phototoxicity against human MCF7 cells assessed as reduction in cell viability preincubated for 24 hrs followed by 7 mins of LED light irradiation by MTT assay; format: toxicity, cell-based; settings: MCF7, light or radiation study
[14] = Phototoxicity ratio of IC50 for cytotoxicity against human MCF7 cells assessed as reduction in cell viability in dark to IC50 for phototoxicity against human MCF7 cells upon LED light irradiation; format: toxicity, cell-based
[15] = Selectivity ratio of IC50 for phototoxicity against human NHDF cells upon LED light irradiation to IC50 for phototoxicity against human MCF7 cells upon LED light irradiation; format: toxicity, cell-based; settings: NHDF cells versus MCF7 cells, read-out: Ratio IC50
[16] = Dark toxicity against human PC-3 cells assessed as reduction in cell viability incubated for 24 hrs by MTT assay; format: cell-based
[17] = Phototoxicity against human PC-3 cells assessed as reduction in cell viability preincubated for 24 hrs followed by 7 mins of LED light irradiation by MTT assay; format: toxicity, cell-based; settings: PC-3, light or radiation study
[18] = Phototoxicity ratio of IC50 for cytotoxicity against human PC-3 cells assessed as reduction in cell viability in dark to IC50 for phototoxicity against human PC-3 cells upon LED light irradiation; format: toxicity, cell-based
Albumin = Albumin (Homo sapiens, UniProt P02768); test: Binding affinity to human serum albumin assessed as binding constant by fluorescence based assay
HeLa [19] = test: Induction of cell cycle arrest in human HeLa cells assessed as accumulation of hypodiploid cells in sub-G1 phase at 0.24 to 1 uM measured after 24 hrs in the absence of light by PI staining based flow cytometry analysis; format: functional; settings: dose 0.24-1 µM
[20] = Selectivity ratio of IC50 for phototoxicity against human NHDF cells upon LED light irradiation to IC50 for phototoxicity against human PC-3 cells upon LED light irradiation; format: toxicity, cell-based; settings: NHDF cells versus PC-3 cells, read-out: Ratio IC50
HeLa [21] = test: Induction of cell cycle arrest in human HeLa cells assessed as accumulation of hypodiploid cells in sub-G1 phase at 0.25 to 1 uM measured after 24 hrs in the absence of light by PI staining based flow cytometry analysis; format: functional; settings: dose 0.25-1 µM
HeLa [22] = test: Induction of morphological change in human HeLa cells assessed as rounded cell morphology at 0.25 uM preincubated for 24 hrs followed by 7 mins of LED light irradiation and measured upto 48 hrs by microscopic analysis; format: functional, cell-based; settings: time min <=4327
HeLa [23] = test: Induction of morphological change in human HeLa cells assessed as cell shrinkage at 0.25 uM preincubated for 24 hrs followed by 7 mins of LED light irradiation and measured upto 48 hrs by microscopic analysis; format: functional, cell-based; settings: time min <=4327
HeLa [24] = test: Induction of morphological change in human HeLa cells assessed as plasma membrane rupture at 1 uM preincubated for 24 hrs followed by 7 mins of LED light irradiation and measured upto 48 hrs by microscopic analysis; format: functional; settings: time min <=4327
HeLa [25] = test: Induction of morphological change in human HeLa cells assessed as intracellular space dilation at 1 uM preincubated for 24 hrs followed by 7 mins of LED light irradiation and measured upto 48 hrs by microscopic analysis; format: functional, cell-based; settings: time min <=4327
[26] = Drug localization in mitochondria of human HeLa cells at 1 uM incubated for 24 hrs by Rhodamine 123 based confocal laser scanning microscopy analysis; format: ADME
HeLa [27] = test: Induction of cell cycle arrest in human HeLa cells assessed as accumulation in G0/G1 phase at 0.25 uM by PI staining based flow cytometry analysis (reference value: 67.03 %); format: functional
HeLa [28] = test: Induction of cell cycle arrest in human HeLa cells assessed as accumulation in S phase at 0.25 uM by PI staining based flow cytometry analysis (reference value: 32.14 %); format: functional
HeLa [29] = test: Induction of cell cycle arrest in human HeLa cells assessed as accumulation in G2/M phase at 0.25 uM by PI staining based flow cytometry analysis (reference value: 4.79 %); format: functional
HeLa [30] = test: Induction of cell cycle arrest in human HeLa cells assessed as accumulation in G0/G1 phase at 1 uM by PI staining based flow cytometry analysis (reference value: 67.03 %); format: functional
HeLa [31] = test: Induction of cell cycle arrest in human HeLa cells assessed as accumulation in S phase at 1 uM by PI staining based flow cytometry analysis (reference value: 32.14 %); format: functional
HeLa [32] = test: Induction of cell cycle arrest in human HeLa cells assessed as accumulation in G2/M phase at 1 uM by PI staining based flow cytometry analysis (reference value: 4.79 %); format: functional
HeLa [33] = test: Induction of cell cycle arrest in human HeLa cells assessed as accumulation in G0/G1 phase at 0.25 uM with red light radiation for 7 mins by PI staining based flow cytometry analysis (reference value: 63.18%); format: functional
HeLa [34] = test: Induction of cell cycle arrest in human HeLa cells assessed as accumulation in S phase at 0.25 uM with red light radiation for 7 mins by PI staining based flow cytometry analysis (reference value: 32.09 %); format: functional
HeLa [35] = test: Induction of cell cycle arrest in human HeLa cells assessed as accumulation in G2/M phase at 0.25 uM with red light radiation for 7 mins by PI staining based flow cytometry analysis (reference value: 4.73 %); format: functional
HeLa [36] = test: Induction of morphological change in human HeLa cells assessed as reduction in adhesion at 0.25 uM preincubated for 24 hrs followed by 7 mins of LED light irradiation and measured upto 48 hrs by microscopic analysis; format: functional, cell-based; settings: time min <=4327
HeLa [37] = test: Induction of apoptosis in human HeLa cells at 0.25 uM preincubated for 24 hrs followed by 7 mins LED light irradiation and measured after 24 hrs by PI staining based flow cytometry analysis; format: functional; settings: time 2887 min, 48.12 h
[38] = Drug localization in lysosome of human HeLa cells at 1 uM incubated for 24 hrs by Green Fluorescent Protein based confocal laser scanning microscopy analysis; format: ADME, subcellular
HeLa [39] = test: Induction of apoptosis in human HeLa cells assessed as increase in DNA cleavage at 1 uM preincubated for 24 hrs followed by 7 mins LED light irradiation and measured after 24 hrs by PI staining based flow cytometry analysis; format: functional; settings: time 2887 min, 48.12 h

Albumin, sequence (P02768 whole entry): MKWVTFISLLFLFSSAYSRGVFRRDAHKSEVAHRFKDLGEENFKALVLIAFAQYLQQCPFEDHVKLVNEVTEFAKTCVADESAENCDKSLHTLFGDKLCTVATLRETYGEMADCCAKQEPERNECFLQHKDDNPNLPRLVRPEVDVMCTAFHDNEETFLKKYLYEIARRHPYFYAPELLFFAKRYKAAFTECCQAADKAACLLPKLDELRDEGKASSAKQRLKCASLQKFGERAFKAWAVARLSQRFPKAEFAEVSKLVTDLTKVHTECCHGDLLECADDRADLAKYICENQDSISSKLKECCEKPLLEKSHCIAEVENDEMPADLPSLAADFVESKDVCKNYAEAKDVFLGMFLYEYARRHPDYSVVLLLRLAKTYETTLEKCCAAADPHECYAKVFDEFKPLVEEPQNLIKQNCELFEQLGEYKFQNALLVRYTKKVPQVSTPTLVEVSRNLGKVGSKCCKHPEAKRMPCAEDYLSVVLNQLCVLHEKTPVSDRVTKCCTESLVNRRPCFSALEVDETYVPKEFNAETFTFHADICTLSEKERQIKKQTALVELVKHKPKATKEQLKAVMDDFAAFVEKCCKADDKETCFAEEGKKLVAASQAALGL

Kb (Albumin) | SMILES | IC50 at 24 h [1] | IC50 at 24 h [2] | selectivity ratio [3] | IC50 at 24 h [4] | IC50 [5] | Ratio IC50 [6] | selectivity ratio [7] | IC50 at 24 h [8] | IC50 [9] | Ratio IC50 [10] | selectivity ratio [11] | IC50 at 24 h [12] | IC50 [13] | Ratio IC50 [14] | selectivity ratio [15] | IC50 at 24 h [16] | IC50 [17] | Ratio IC50 [18] | selectivity ratio [20] | other results
5.92 10^5/M | CCN1/C(=C/C2=C(N(Cc3ccccn3)Cc3ccccn3)C(=C/C3=[N+](CC)c4ccc5ccccc5c4C3(C)C)/C2=O)C(C)(C)c2c1ccc1ccccc21.[I-] | 484 nM | 184 nM | 2.6 | 328 nM | 92 nM | 3.6 | 2 | 449 nM | 113 nM | 4 | 1.63 | 534 nM | 150 nM | 3.6 | 1.23 | 393 nM | 148 nM | 2.7 | – | –
1.64 10^5/M | CCCCCCN1/C(=C/C2=C(NCc3ccccn3)C(=C/C3=[N+](CCCCCC)c4ccc5ccccc5c4C3(C)C)/C2=O)C(C)(C)c2c1ccc1ccccc21.[I-] | 4300 nM | 1280 nM | 3.4 | > 10000 nM | 4820 nM | > 2.1 | 0.26 | 4780 nM | 2580 nM | 1.9 | 0.49 | 3100 nM | 2290 nM | 1.4 | 0.56 | 6690 nM | 1530 nM | 1.3 | 0.84 | Activity (HeLa [19]): 1%
2.01 10^5/M | CCN1/C(=C/C2=C([O-])C(=C/C3=[N+](CC)c4ccc5ccccc5c4C3(C)C)/C2=O)C(C)(C)c2c1ccc1ccccc21 | > 10000 nM | 222 nM | > 45 | > 10000 nM | 332 nM | > 30.1 | 0.67 | > 10000 nM | 245 nM | > 40.8 | 0.91 | > 10000 nM | 232 nM | > 43.1 | 0.96 | > 10000 nM | 190 nM | > 52.6 | 1.17 | Activity (HeLa [21]): 1%; Activity (HeLa [22]): Active; Activity (HeLa [23]): Active; Activity (HeLa [24]): Active; Activity (HeLa [25]): Active; Drug uptake [26]: Active; Activity (HeLa [27]): 68.96%; Activity (HeLa [28]): 25.84%; Activity (HeLa [29]): 5.19%; Activity (HeLa [30]): 70.47%; Activity (HeLa [31]): 25.92%; Activity (HeLa [32]): 3.61%; Activity (HeLa [33]): 58.79%; Activity (HeLa [34]): 31.5%; Activity (HeLa [35]): 9.71%; Activity (HeLa [36]): Active; Activity (HeLa [37]): 17%; Drug uptake [38]: Not Active; Activity (HeLa [39]): 98%
7.68 10^5/M | CCCCCCN1/C(=C/C2=C(N(Cc3ccccn3)Cc3ccccn3)C(=C/C3=[N+](CCCCCC)c4ccc5ccccc5c4C3(C)C)/C2=O)C(C)(C)c2c1ccc1ccccc21.[I-] | 1010 nM | 695 nM | 1.4 | 2490 nM | 2130 nM | 1.2 | 0.33 | 1740 nM | 1170 nM | 1.5 | 0.59 | 1520 nM | 1190 nM | 1.3 | 0.59 | 1110 nM | 967 nM | 1.1 | 0.72 | –
